Our source for the Ki, EC50 and Emax values is US9796720B2, “Imidazole-derived modulators of the glucocorticoid receptor” (BRISTOL-MYERS SQUIBB COMPANY, priority 2013, dated 2017).

Experiment [1] addresses human full-length glucocorticoid receptor (Homo sapiens (Human), UniProt P04150). Briefly: Glucocorticoid Receptor Binding Assay (II), fluorescence polarization competitor assay. The settings on record: recombinant human full-length GR cell lysate, Fluormone GS1; read-out: GR (Ki, nM) (measured in GR binding Assay II). The protocol: Glucocorticoid Receptor Binding Assay (II)
In order to measure the binding of compounds on the glucocorticoid receptor a commercially available kit was used (Glucocorticoid receptor competitor assay kit, PanVera Co., Madison, Wis., P2816). Briefly, a cell lysate containing recombinantly expressed human full-length glucocorticoid receptor was mixed with a fluorescently labeled glucocorticoid (1 nM Fluormone GS1) in the presence or absence of test compound. After one hour at room temperature, the fluorescence polarization (FP) of the samples were measured.
On the technique in general: Polarisation of emitted light reports the rotation of a fluorescent probe.

For a further experiment, the system named is AP-1. Briefly: Cellular transrepressional assay (AP-1 luciferase reporter in A549 cells, PMA-activated). Format: cell-based. The settings on record: for EC50: read-out: AP-1 (EC50, nM) (measured in cellular transrepression assay); for Emax: read-out: AP-1 Max % inhibition (measured in cellular transrepression assay). The protocol: Cellular Transrepressional Assay
To measure the ability of test molecules to inhibit AP-1 induced transcriptional activity we utilized an A549 cell which was stably transfected with a plasmid containing 7×AP-1 DNA binding sites (pAP-1-Luc plasmid, Stratagene Co. La Jolla, Calif.) followed by the gene for luciferase. Cells were activated with 10 ng/ml of phorbol myristic acid (PMA) plus or minus test molecules for 7 hours. After 7 hours a luciferase reagent was added to measure luciferase enzymatic activity in the cell. After a 10 minute incubation of luciferase reagent with cells, luminescence was measured in a TOPCOUNT® luminescence counter. Repression of AP-1 activity was calculated as the percentage decrease in the signal induced by PMA alone. Test molecules were analyzed in the concentration range from 0.1 nM to 40 μM. EC50s were determined by using standard curve fitting methods such as Excel fit (Microsoft Co.). An EC50 is the test molecule concentration at which there is a 50% repression of the maximal inhibition of transcription, i.e., a 50% reduction of AP-1 activity.
Background: A reporter such as luciferase makes a cellular process visible.

[2] abbreviates: A549 cells, 7xAP-1 luciferase, PMA 10 ng/ml, 7 hours.

Where two headings read alike, the source gives them in different places.

human full-length glucocorticoid receptor, sequence (P04150 whole entry): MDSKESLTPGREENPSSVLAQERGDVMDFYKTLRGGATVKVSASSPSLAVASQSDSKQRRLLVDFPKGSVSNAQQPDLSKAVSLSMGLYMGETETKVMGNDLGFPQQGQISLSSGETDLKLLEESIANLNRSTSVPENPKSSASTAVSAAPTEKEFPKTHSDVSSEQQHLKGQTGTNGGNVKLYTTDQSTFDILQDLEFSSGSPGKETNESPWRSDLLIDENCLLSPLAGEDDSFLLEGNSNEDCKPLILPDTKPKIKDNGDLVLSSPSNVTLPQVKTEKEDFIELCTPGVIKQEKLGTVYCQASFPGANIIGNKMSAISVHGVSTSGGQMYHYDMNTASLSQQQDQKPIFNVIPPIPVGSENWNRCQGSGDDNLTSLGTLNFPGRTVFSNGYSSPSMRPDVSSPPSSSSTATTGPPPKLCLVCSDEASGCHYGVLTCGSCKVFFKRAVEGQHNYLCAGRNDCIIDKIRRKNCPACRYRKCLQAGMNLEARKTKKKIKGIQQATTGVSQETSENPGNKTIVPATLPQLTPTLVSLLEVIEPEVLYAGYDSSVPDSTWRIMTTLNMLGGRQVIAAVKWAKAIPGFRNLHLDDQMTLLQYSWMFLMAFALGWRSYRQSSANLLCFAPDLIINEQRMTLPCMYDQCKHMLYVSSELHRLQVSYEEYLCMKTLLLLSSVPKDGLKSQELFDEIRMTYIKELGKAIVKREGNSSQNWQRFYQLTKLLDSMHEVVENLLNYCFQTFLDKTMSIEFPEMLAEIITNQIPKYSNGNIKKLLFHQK

The Ki is a measure of affinity in units of concentration, obtained from inhibition or displacement. A word on the EC50: it is the midpoint of the concentration-response curve. With `CC(C)(c1nc2nccnc2[nH]1)[C@@H]1c2ccc(-c3ccc(N4CCOCC4)cc3)nc2Oc2c(F)cccc21` [Example 18, (S)-5-(2-(1H-Imidazo[4,5-b]pyrazin-2-yl)propan-2-yl)-9-fluoro-2-(4-morpholinophenyl)-5H-chromeno[2,3-b]pyridine], in experiment [1], the Ki turned out to be 16 nM. In addition, in the experiment with AP-1 (setting [2]), the EC50 was 61.1 nM and the Emax was determined as 50.6%.

`CC(=O)Nc1ccc(-c2ccc3c(n2)Oc2c(F)cccc2[C@@H]3C(C)(C)c2nc3nccnc3[nH]2)cc1` [Example 19, (S)-N-(4-(5-(2-(1H-Imidazo[4,5-b]pyrazin-2-yl)propan-2-yl)-9-fluoro-5H-chromeno[2,3-b]pyridin-2-yl)phenyl)acetamide]: the Ki in experiment [1] was 70.5 nM. Further, in the experiment on AP-1 (setting [2]), the half-maximal effective concentration (EC50) amounted to 1950 nM and the Emax was found to be 44.6%.

As to `CC(C)(c1nc2nccnc2[nH]1)[C@@H]1c2ccc(-c3ccccc3)nc2Oc2c(F)cccc21` [Example 20, (S)-5-(2-(1H-Imidazo[4,5-b]pyrazin-2-yl)propan-2-yl)-9-fluoro-2-phenyl-5H-chromeno[2,3-b]pyridine], the Ki in experiment [1] was determined as 1.4 nM. Besides, in the experiment on AP-1 (setting [2]), the 50% effective concentration (EC50) is 14.2 nM and the Emax stood at 40%.

On to `CC(C)(c1nc2nccnc2[nH]1)[C@@H]1c2ccc(-c3ccncc3)nc2Oc2c(F)cccc21` [Example 21, (S)-5-(2-(1H-Imidazo[4,5-b]pyrazin-2-yl)propan-2-yl)-9-fluoro-2-(pyridin-4-yl)-5H-chromeno[2,3-b]pyridine], for which the Ki in experiment [1] was found to be 3.92 nM. For the same molecule, in the experiment with AP-1 (setting [2]), the concentration giving a half-maximal response (EC50) amounted to 21.1 nM and the Emax stood at 45.9%.

Turning to `CC(C)(c1nc2nccnc2[nH]1)[C@@H]1c2ccc(-c3ccc(N)cc3)nc2Oc2c(F)cccc21` [Example 22, (S)-4-(5-(2-(1H-Imidazo[4,5-b]pyrazin-2-yl)propan-2-yl)-9-fluoro-5H-chromeno[2,3-b]pyridin-2-yl)aniline], the Ki in experiment [1] worked out at 2.91 nM. Also, in the experiment with AP-1 (setting [2]), the EC50 came out at 19.9 nM and the Emax was determined as 51%.

As to `CC(C)(c1nc2nccnc2[nH]1)[C@@H]1c2ccc(-c3ccc(NS(C)(=O)=O)cc3)nc2Oc2c(F)cccc21` [Example 23, (S)-N-(4-(5-(2-(1H-Imidazo[4,5-b]pyrazin-2-yl)propan-2-yl)-9-fluoro-5H-chromeno[2,3-b]pyridin-2-yl)phenyl)methanesulfonamide], the Ki in experiment [1] came to 1.76 nM. Also, in the experiment with AP-1 (7 h), the concentration giving a half-maximal response (EC50) is 22.8 nM and the Emax turned out to be 58.2%.

Regarding `CC(C)(c1nc2nccnc2[nH]1)[C@@H]1c2ccc(-c3ccc(N4CCCC4=O)cc3)nc2Oc2c(F)cccc21` [Example 24, (S)-1-(4-(5-(2-(1H-Imidazo[4,5-b]pyrazin-2-yl)propan-2-yl)-9-fluoro-5H-chromeno[2,3-b]pyridin-2-yl)phenyl)pyrrolidin-2-one], the Ki in experiment [1] stood at 1.9 nM. In addition, in the experiment on AP-1 (setting [2]), the EC50 is 37.3 nM and the Emax came out at 69.4%.

As to `CC(C)Oc1ccc(-c2ccc3c(n2)Oc2c(F)cccc2[C@@H]3C(C)(C)c2nc3nccnc3[nH]2)cn1` [Example 25, (S)-5-(2-(1H-Imidazo[4,5-b]pyrazin-2-yl)propan-2-yl)-9-fluoro-2-(6-isopropoxypyridin-3-yl)-5H-chromeno[2,3-b]pyridine], the Ki in experiment [1] came to 2.78 nM. In the experiment on AP-1 (setting [2]), the EC50 was determined as 31.7 nM and the Emax was found to be 57.8%.

As for `COC(=O)c1ccc(-c2ccc3c(n2)Oc2c(F)cccc2[C@@H]3C(C)(C)c2nc3nccnc3[nH]2)cn1` [Example 26, (S)-Methyl 5-(5-(2-(1H-imidazo[4,5-b]pyrazin-2-yl)propan-2-yl)-9-fluoro-5H-chromeno[2,3-b]pyridin-2-yl)picolinate], in experiment [1], the inhibition constant (Ki) stood at 144 nM. Moreover, in the experiment on AP-1 (setting [2]), the EC50 turned out to be 5000 nM and the Emax was determined as 14.3%.

On to `CC(C)(O)c1ccc(-c2ccc3c(n2)Oc2c(F)cccc2[C@@H]3C(C)(C)c2nc3nccnc3[nH]2)cn1` [Example 27, (S)-2-(5-(5-(2-(1H-Imidazo[4,5-b]pyrazin-2-yl)propan-2-yl)-9-fluoro-5H-chromeno[2,3-b]pyridin-2-yl)pyridin-2-yl)propan-2-ol], for which the Ki in experiment [1] was determined as 9.3 nM. For the same molecule, in the experiment with AP-1 (setting [2]), the EC50 was 28.4 nM and the Emax came to 53.6%.

With `CC(C)(c1nc2nccnc2[nH]1)[C@@H]1c2ccc(-c3ccc(F)nc3)nc2Oc2c(F)cccc21` [Example 28, (S)-5-(2-(1H-Imidazo[4,5-b]pyrazin-2-yl)propan-2-yl)-9-fluoro-2-(6-fluoropyridin-3-yl)-5H-chromeno[2,3-b]pyridine], the Ki in experiment [1] came to 28.6 nM. Also, in the experiment on AP-1 (setting [2]), the EC50 was found to be 5000 nM and the Emax amounted to 16.4%.

Consider `CN(C)c1ccc(-c2ccc3c(n2)Oc2c(F)cccc2[C@@H]3C(C)(C)c2nc3nccnc3[nH]2)cn1` [Example 29, (S)-5-(5-(2-(1H-Imidazo[4,5-b]pyrazin-2-yl)propan-2-yl)-9-fluoro-5H-chromeno[2,3-b]pyridin-2-yl)-N,N-dimethylpyridin-2-amine], for which, in experiment [1], the inhibitory constant (Ki) came to 5.43 nM. In addition, in the experiment with AP-1 (setting [2]), the 50% effective concentration (EC50) stood at 129 nM and the Emax was found to be 44.9%.

As to `CC(C)(c1nc2nccnc2[nH]1)[C@@H]1c2ccc(-c3ccc(C(=O)N4CCOCC4)nc3)nc2Oc2c(F)cccc21` [Example 30, (S)-(5-(5-(2-(1H-Imidazo[4,5-b]pyrazin-2-yl)propan-2-yl)-9-fluoro-5H-chromeno[2,3-b]pyridin-2-yl)pyridin-2-yl)(morpholino)methanone], the Ki in experiment [1] was found to be 30.3 nM. In addition, in the experiment on AP-1 (setting [2]), the 50% effective concentration (EC50) stood at 179 nM and the Emax is 57%.

For `Cn1nnnc1-c1ccc(-c2ccc3c(n2)Oc2c(F)cccc2[C@@H]3C(C)(C)c2nc3nccnc3[nH]2)cc1` [Example 31, (S)-5-(2-(1H-Imidazo[4,5-b]pyrazin-2-yl)propan-2-yl)-9-fluoro-2-(4-(1-methyl-1H-tetrazol-5-yl)phenyl)-5H-chromeno[2,3-b]pyridine], the Ki in experiment [1] came to 1.94 nM. Besides, in the experiment on AP-1 (setting [2]), the 50% effective concentration (EC50) was 15 nM and the Emax is 48.6%.
